One molecule from article PMC3744530, “CTA095, a Novel Etk and Src Dual Inhibitor, Induces Apoptosis in Prostate Cancer Cells and Overcomes Resistance to Src Inhibitors” (PLoS ONE, 2013) can be followed below.

The test system of assay [1] is Etk phosphorylation in PC3-Etk cells. In words: Western blot of Etk phosphorylation in intact cells. The assay is classed as cell-based, human. The conditions noted are these: 5 μM and 10 μM, 24 h. The method, then: Western blotting was performed as described previously. Proteins were detected using the following antibodies: β-actin (Sigma-Aldrich, Saint Louis, MO), Etk (Santa Cruz Inc., Santa Cruz, CA), pEtk; Src, pSrc; Stat3, pStat3. For phospho-Etk, cells were pre-treated with 100 μM pervanadate for 15 min before harvest.
Figure 4 Inhibition of cell signaling in PC3 cells following treatment with CTA095. Cells were grown in 10 mm plate to 50% confluence and treated with CTA095. Cells were harvested after 24 h. pEtk, Etk, pSrc, Src, pStat3, Stat3, pAkt and Akt levels were measured using the corresponding antibodies by Western blot. One of three similar experiments depicted.
(A western blot detects proteins with antibodies after separation by electrophoresis.)

In assay [2] the target is T1, Yes (Homo sapiens, UniProt P07947).
T1 construct: purchased Millipore Inc (Dundee, UK)
T1 sequence (P07947 whole entry): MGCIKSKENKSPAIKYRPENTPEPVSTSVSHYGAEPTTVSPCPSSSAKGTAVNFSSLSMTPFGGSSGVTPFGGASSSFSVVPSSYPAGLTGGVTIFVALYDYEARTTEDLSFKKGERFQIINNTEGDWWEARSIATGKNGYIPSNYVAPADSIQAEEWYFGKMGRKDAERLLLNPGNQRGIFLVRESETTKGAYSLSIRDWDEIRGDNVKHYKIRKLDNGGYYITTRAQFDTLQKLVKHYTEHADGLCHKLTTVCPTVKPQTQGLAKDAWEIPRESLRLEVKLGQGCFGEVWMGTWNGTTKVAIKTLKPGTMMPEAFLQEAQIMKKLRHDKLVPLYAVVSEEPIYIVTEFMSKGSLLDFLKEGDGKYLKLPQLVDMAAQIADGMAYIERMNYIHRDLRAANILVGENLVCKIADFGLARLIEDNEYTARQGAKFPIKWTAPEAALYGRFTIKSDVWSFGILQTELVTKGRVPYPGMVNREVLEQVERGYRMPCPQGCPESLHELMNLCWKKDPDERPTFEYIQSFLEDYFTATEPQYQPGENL
In words: Kinase inhibition assay (TLC, 33P-ATP). The format is biochemical. As for the experimental part: (§1) Kinase inhibition was measured using thin-layer-chromatography (TLC). Briefly, purified kinases (20 nM), the corresponding substrate (500 µM, TSFYGRH for Etk, YIYGSFK for the other kinases), and CTA095 (0–10 µM) were incubated in a kinase reaction (100 mM Hepes, pH 7.4, 10 mM MnCl2, 10 mM MgCl2, 1 mM DTT) for 5 min, and the reaction was started by adding 5 μCi ^33P-labeled ATP. The reaction (10 µl) was incubated at room temperature for 1 h and was stopped by adding 10 μL H3PO4. The radioactivity of the peptide substrate was analyzed using TLC as previously described.
(§2) Having isolated a small molecule that inhibits Etk, the next logical step was to determine its specificity for this enzyme. To accomplish this, purified Etk, Btk, Src and Yes were incubated in a kinase reaction buffer with CTA095 (0–1 μM) in the presence of ^33P-labeled ATP and a peptide (YIYGSFK), previously shown to be an excellent substrate for both BTK and Src family kinases. The kinase activity was measured using TLC technique.

Assay [3] concerns the target T2, Etk (Homo sapiens, UniProt P51813).
T2 construct: purchased Millipore Inc (Dundee, UK)
T2 sequence (P51813 1-675): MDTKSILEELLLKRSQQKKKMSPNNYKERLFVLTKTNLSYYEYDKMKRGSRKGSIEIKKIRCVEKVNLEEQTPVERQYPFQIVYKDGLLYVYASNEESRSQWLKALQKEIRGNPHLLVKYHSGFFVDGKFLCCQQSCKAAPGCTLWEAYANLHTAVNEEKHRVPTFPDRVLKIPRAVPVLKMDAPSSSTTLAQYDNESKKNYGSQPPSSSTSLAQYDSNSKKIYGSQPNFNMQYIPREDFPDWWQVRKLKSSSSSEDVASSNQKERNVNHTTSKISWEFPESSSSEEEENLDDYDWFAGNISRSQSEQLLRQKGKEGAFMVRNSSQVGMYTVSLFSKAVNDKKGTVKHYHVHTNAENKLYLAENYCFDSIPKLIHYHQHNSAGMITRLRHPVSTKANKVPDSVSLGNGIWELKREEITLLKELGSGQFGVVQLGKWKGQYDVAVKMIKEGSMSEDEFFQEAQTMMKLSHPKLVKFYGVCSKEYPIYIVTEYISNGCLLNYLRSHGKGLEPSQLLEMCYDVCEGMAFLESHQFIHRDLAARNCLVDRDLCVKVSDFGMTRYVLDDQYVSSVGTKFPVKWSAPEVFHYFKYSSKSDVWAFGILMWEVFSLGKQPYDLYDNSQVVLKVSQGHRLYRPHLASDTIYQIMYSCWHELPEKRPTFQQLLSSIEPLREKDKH
In words: Kinase inhibition assay (TLC, 33P-ATP). The format is biochemical. The settings on record: for IC50: Etk. As for the experimental part: as §1, §2

The target of assay [4] is T3, Src (Homo sapiens, UniProt P12931).
T3 construct: purchased Millipore Inc (Dundee, UK)
T3 sequence (P12931 whole entry): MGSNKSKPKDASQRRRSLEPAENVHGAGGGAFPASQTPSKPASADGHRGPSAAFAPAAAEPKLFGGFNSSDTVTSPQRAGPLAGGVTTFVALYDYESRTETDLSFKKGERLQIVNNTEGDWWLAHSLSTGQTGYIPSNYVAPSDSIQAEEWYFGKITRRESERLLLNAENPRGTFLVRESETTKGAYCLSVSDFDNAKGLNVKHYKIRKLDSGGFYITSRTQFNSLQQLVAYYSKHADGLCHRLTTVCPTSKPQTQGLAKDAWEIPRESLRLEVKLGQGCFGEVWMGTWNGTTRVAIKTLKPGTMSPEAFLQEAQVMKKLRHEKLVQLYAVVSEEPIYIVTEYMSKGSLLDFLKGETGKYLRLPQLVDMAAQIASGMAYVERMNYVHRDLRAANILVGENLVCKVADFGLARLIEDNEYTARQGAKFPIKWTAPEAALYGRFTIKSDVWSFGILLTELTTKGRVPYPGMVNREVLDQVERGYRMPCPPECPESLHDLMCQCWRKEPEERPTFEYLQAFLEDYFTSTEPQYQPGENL
In words: Kinase inhibition assay (TLC, 33P-ATP). The assay is classed as biochemical. As for the experimental part:
as §1, §2

Assay [5] deals with Axl (Homo sapiens, UniProt P30530). In words: Kinase inhibition assay (TLC). The format is biochemical. The method, then: as §1
Sequence of Axl (P30530 26-894, species assumed): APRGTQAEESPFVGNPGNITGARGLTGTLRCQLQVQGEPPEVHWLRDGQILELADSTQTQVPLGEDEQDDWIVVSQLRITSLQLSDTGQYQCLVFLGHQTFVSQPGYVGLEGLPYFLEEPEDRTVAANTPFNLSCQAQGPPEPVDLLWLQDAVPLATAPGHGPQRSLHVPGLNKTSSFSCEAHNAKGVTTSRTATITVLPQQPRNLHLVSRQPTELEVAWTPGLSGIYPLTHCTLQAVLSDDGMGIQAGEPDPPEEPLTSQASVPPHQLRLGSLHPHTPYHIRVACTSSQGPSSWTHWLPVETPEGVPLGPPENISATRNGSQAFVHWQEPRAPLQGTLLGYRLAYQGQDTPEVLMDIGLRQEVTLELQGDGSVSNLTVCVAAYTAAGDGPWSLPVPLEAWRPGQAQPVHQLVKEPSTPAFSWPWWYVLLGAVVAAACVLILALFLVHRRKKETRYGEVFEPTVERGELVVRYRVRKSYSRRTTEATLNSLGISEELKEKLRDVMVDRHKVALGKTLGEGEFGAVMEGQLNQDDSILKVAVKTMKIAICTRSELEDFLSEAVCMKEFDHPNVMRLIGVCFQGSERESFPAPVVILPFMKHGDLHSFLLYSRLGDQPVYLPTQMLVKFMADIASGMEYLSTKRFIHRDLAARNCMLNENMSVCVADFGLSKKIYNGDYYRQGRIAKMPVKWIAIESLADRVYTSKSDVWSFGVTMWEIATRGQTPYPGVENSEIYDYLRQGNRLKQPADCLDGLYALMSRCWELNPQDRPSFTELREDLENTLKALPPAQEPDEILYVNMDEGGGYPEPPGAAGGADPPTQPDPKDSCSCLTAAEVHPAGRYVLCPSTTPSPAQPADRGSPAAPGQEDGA
(§3) In addition to the Btk family tyrosine kinases, the inhibitory activity of CTA095 to other kinases, including Lyn, Axl, Mer, EGFR, and Abl, was investigated using a TLC assay.

Assay [6] deals with Lyn (Homo sapiens, UniProt P07948). Kind of assay: Kinase inhibition assay (TLC). The format is biochemical. The method, then: as §1, §3
Sequence of Lyn (P07948 whole entry, species assumed): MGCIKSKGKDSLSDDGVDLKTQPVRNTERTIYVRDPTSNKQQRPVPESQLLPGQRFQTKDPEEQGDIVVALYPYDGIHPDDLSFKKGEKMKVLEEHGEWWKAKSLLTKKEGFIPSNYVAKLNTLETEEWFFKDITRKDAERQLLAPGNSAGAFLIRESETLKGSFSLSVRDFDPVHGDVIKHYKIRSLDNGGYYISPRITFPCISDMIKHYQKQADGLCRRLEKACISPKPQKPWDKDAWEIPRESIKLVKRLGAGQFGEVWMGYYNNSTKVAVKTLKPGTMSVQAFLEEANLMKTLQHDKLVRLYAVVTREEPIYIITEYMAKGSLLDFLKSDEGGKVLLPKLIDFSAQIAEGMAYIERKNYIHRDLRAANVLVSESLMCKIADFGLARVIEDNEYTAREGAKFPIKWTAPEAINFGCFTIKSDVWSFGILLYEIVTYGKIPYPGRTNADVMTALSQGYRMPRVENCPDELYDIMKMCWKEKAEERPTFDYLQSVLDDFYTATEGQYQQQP
The target of assay [7] is Itk (Homo sapiens, UniProt Q08881). Kind of assay: Kinase inhibition assay (TLC). The format is biochemical. As for the experimental part:
as §1, §3

Assay [8] addresses EGFR (Homo sapiens, UniProt P00533). In words: Kinase inhibition assay (TLC). The format is biochemical. The method, then:
as §1, §3

Assay [9] deals with T4, Mer (Homo sapiens, UniProt Q12866).
T4 construct: purchased Millipore Inc (Dundee, UK)
In words: Kinase inhibition assay (TLC). The assay is classed as biochemical. As for the experimental part: as §1, §3

Assay [10] concerns the target Abl (Homo sapiens, UniProt P00519). Kind of assay: Kinase inhibition assay (TLC). The format is biochemical. As for the experimental part:
as §1, §3

The test system of assay [11] is caspase3/7 in PC3 cells. Kind of assay: Caspase-3/7 activity (Apo-ONE Homogeneous assay). The format is cell-based, human. The settings on record: PC3, 0–10 μM, 24 h. The method, then: For caspase 3/7 activities, PC3 cells were seeded at 5,000 cells/well in 96-well plate overnight. Then the cells were treated with 0–10 μM CTA095 for 24 h. Caspase-3/7 activities were measured using the Apo-ONE Homogeneous Caspase-3/7 Assay kit (Promega, Madison, WI) according to the manufacturer's instruction. For caspase 9 activity, PC3 cells were seeded in 10 mm tissue culture plate and grew to 50% confluence. Cells were then treated with 0–10 μM CTA095 for 24 h. Cells were harvested and caspase 9 activity was measured using a Western blot with an anti-caspase 9 antibody.
Figure 7 Induction of apoptosis of PC3 cells following treatment with CTA095. PC3 cells were seeded at 10^6 cells/ml (2 ml) in a 6-well plate overnight and then treated with CTA095 at the indicated concentrations for 24 h. Cell cycle arrest was analyzed using PI staining (A). Apoptosis was analyzed using Annexin-V FITC apoptosis detection kit (B). Caspase 9 activation was measured using western blot (D). For caspase 3/7 activity, PC3 cells were seeded at 5000 cells/well in 96 well plate overnight and treated with CTA095 at 0–10 μM for 24 h. Caspase-3/7 activities were measured using the Apo-ONE Homogeneous Caspase-3/7 Assay kit (Promega, Madison, WI) according to the manufacturer's instruction. Columns, mean; bars, standard deviation, n = 3. […]

Sequence of EGFR (P00533 25-1210, species assumed): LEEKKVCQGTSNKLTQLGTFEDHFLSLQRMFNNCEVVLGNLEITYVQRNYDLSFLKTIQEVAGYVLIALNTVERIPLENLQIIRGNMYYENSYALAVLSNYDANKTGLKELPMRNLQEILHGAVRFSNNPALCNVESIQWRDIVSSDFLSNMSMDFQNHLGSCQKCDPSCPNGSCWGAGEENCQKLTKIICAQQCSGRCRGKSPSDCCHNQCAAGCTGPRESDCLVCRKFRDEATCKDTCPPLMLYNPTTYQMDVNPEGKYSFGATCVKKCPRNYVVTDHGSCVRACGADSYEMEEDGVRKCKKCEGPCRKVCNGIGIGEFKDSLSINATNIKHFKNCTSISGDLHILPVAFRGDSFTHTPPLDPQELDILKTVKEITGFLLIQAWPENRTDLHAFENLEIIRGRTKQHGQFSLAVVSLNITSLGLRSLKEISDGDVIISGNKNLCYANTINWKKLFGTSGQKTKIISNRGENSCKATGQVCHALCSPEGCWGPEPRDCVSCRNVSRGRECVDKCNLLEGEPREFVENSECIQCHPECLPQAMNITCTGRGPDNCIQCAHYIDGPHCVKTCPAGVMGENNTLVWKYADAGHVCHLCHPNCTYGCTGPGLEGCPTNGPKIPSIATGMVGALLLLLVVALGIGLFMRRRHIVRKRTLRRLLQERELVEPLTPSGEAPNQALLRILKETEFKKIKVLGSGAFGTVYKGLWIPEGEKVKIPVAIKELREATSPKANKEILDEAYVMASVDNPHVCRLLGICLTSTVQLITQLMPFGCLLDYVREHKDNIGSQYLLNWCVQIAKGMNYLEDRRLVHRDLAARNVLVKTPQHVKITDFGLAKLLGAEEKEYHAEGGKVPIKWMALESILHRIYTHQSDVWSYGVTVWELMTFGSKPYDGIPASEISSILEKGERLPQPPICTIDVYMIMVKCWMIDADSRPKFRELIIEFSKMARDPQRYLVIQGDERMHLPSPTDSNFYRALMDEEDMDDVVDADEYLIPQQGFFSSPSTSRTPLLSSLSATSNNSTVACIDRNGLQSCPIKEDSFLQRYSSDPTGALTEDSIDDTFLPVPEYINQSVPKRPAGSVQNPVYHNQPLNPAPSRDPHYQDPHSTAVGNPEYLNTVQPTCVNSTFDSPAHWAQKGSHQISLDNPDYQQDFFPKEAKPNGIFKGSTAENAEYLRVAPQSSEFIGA
Sequence of Itk (Q08881 whole entry, species assumed): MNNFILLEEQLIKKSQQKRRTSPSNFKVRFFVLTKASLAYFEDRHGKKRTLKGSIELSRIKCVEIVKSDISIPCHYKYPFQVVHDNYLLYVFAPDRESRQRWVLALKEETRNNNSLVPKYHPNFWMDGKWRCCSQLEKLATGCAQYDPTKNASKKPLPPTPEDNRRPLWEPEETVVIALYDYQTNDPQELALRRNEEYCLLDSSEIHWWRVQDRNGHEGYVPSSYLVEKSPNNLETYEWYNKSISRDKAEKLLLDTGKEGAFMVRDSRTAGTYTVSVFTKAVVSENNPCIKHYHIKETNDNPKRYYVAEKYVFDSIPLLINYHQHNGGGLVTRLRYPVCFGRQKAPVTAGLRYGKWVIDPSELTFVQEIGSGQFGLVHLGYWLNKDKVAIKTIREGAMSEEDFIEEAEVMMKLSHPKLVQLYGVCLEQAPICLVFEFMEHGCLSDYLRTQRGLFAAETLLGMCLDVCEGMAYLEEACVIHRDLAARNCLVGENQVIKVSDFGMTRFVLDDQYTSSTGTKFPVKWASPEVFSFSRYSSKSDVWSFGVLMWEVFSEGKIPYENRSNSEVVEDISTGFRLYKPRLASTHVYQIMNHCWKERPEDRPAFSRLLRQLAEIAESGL

For `O=c1[nH]c2cc3nc(-c4ccc5oc6ccccc6c5c4)n(CCCN4CCCCC4)c3cc2nc1-c1ccccc1` [CTA095, 2-(dibenzo[b,d]furan-2-yl)-7-phenyl-1-(3-(piperidin-1-yl)propyl)-1H-imidazo[4,5-g]quinoxalin-6(5H)-one], the Etk phosphorylation entry in assay [1] is reported as “significantly inhibited”. Moreover, the IC50 is over 10000 nM in assay [2]; 60 nM in [3] (TLC assay); about 60 nM in [3] (TLC, peptide YIYGSFK, 33P-ATP); 120 nM in assay [4] (TLC assay); about 120 nM in assay [4] (TLC, peptide YIYGSFK, 33P-ATP); over 10000 nM in [5]. Also, the IC50 in [6], in [7], in [8], in assay [9] and in [10] was over 10000 nM each time. For the same molecule, the Etk inhibition entry in assay [3] (compound 1 μM, Etk 20 nM, compared with other CT compounds) was “significant Etk inhibition”. In addition, the “activation of caspase3/7” value in [11] is given as “dose dependent activation”.

The term IC50 denotes the midpoint of a concentration-inhibition curve.
